According to US20180214563A1, “IMMUNOSTIMULATORY NANOCARRIER” (University of Pittsburgh - Of the Commonwealth System of …, priority 2015, published 2018):

Tested on: 4T1.2 cells
Test: In vitro cytotoxicity, MTT assay, 4T1.2
Format: cell-based, mouse
Conditions: 72 h
Method: 4T1.2 , PC3, Panc02, and B16 cells at 2000 cells/well were seeded in 96-well plates, respectively. […] After 3 days of incubation, 20 μL of 3-(4,5-dimethylthiazol-2-yl)-2,5-diphenyltetrazoliumbromide (MTT) in DPBS (5 mg/mL) was added to each well and cells were further incubated for 2 h. Medium was removed and MTT formazan crystals were solubilized by 100 μL of DMSO per well. Absorbance of each well was measured with a microplate reader at wavelength of 550 nm. Untreated wells were used as controls. Cell viability was calculated as [(ODtreated-ODblank)/(ODcontrol-ODblank)×100%].

## CC(=O)O[C@H]1C(=O)[C@@]2(C)[C@H]([C@H](OC(=O)c3ccccc3)[C@]3(O)C[C@H](OC(=O)[C@H](O)[C@@H](NC(=O)c4ccccc4)c4ccccc4)C(C)=C1C3(C)C)[C@]1(OC(C)=O)CO[C@@H]1C[C@@H]2O [PTX, paclitaxel]
  cytotoxicity (tumor cell growth inhibition): inhibited the tumor cell growth in a concentration-dependent manner
